In ChEMBL document CHEMBL1201862, “PubChem BioAssay data set” (2004):
Calls of active or inactive are those of the source.

What was measured:
[1] = molecular target: T1, Alkaline phosphatase, tissue-nonspecific isozyme (Homo sapiens, UniProt P05186)
T1 sequence (P05186 whole entry): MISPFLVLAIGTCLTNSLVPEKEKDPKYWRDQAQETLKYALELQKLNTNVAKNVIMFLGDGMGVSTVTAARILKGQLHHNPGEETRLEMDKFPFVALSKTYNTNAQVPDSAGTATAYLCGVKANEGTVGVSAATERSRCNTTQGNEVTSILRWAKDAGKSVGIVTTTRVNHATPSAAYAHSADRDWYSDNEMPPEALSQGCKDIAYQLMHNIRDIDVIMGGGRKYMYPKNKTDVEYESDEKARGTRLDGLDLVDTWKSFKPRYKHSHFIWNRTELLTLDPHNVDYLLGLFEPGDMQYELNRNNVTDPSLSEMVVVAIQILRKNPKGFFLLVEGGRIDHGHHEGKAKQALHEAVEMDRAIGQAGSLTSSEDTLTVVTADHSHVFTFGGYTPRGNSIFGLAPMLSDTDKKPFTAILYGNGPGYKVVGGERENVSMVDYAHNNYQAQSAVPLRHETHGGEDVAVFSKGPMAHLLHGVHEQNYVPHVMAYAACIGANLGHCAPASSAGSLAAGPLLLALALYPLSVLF

Cytochrome P450 2D6 = Cytochrome P450 2D6 (Homo sapiens, UniProt P10635); experiment: qHTS Assay for Inhibitors and Substrates of Cytochrome P450 2D6. [Related pubchem assays: 410 ]; format: ADME; settings: read-out: Potency
Chain of Cytochrome P450 2D6 (P10635 whole entry): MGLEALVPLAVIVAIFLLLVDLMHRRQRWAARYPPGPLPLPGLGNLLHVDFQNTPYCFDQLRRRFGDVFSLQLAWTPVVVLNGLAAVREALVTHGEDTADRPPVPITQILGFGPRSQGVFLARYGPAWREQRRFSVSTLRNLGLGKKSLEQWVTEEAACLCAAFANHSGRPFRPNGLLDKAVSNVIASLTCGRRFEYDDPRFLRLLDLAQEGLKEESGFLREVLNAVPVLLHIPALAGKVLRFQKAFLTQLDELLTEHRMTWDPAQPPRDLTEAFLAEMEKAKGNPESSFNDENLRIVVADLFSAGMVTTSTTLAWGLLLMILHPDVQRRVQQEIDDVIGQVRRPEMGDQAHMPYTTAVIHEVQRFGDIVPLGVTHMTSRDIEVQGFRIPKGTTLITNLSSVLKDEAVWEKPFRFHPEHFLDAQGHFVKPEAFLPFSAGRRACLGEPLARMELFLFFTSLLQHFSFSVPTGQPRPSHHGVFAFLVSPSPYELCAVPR

[2] = Luminescence Cell-Based Dose Retest to Confirm Inhibitors of Cancer Stem Cells. [Related pubchem assays (depositor defined):AID2717, AID2721]; format: functional; settings: Homo sapiens
HT-1080 = experiment: cytotoxicity in HT1080 fibrosarcoma cells, cell-based, fluorescence readout (AID 620); format: functional; settings: Homo sapiens
Protein RecA = molecular target: T2, Protein RecA (Mycobacterium tuberculosis, UniProt P9WHJ3); experiment: Fluorescence Cell-Free Homogeneous Dose Retest to Identify Inhibitors of RecA-Intein Splicing Activity. [Related pubchem assays (depositor defined):AID2097, AID2223, AID489010, AID492950]; format: functional
T2 sequence (P9WHJ3 whole entry): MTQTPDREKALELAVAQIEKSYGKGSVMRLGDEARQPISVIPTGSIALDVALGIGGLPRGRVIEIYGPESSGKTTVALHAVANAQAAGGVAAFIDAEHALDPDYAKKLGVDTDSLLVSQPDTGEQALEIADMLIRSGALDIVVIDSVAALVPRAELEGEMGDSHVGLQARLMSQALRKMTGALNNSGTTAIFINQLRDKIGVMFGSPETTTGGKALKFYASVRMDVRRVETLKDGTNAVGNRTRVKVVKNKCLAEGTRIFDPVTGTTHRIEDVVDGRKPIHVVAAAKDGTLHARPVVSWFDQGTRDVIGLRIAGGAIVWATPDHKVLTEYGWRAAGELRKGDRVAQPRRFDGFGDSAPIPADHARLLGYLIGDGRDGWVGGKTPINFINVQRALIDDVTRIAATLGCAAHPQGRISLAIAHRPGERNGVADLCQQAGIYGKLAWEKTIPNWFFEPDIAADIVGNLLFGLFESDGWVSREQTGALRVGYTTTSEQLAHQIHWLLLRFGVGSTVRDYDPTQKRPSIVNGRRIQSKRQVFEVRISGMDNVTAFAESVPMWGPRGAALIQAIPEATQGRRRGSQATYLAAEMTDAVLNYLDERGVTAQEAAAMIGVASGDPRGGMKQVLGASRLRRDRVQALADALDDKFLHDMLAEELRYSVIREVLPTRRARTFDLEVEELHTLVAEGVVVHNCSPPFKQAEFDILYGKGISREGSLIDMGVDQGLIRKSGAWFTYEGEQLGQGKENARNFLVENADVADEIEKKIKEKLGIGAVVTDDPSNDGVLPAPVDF

[3] = inhibitors of PGC1a acetylation in cells, dose response, cell-based, cherry-picked samples (AID 720514); format: functional;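 note: potency may reflect raised or lowered acetylation signal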
[4] = molecular target: T3, Replicative DNA helicase DnaB (Mycobacterium tuberculosis, UniProt P9WMR3); experiment: DnaB intein splicing inhibitors, dose response, biochemical, cell-free fluorescence (AID 449749); format: functional
T3 sequence (P9WMR3 whole entry): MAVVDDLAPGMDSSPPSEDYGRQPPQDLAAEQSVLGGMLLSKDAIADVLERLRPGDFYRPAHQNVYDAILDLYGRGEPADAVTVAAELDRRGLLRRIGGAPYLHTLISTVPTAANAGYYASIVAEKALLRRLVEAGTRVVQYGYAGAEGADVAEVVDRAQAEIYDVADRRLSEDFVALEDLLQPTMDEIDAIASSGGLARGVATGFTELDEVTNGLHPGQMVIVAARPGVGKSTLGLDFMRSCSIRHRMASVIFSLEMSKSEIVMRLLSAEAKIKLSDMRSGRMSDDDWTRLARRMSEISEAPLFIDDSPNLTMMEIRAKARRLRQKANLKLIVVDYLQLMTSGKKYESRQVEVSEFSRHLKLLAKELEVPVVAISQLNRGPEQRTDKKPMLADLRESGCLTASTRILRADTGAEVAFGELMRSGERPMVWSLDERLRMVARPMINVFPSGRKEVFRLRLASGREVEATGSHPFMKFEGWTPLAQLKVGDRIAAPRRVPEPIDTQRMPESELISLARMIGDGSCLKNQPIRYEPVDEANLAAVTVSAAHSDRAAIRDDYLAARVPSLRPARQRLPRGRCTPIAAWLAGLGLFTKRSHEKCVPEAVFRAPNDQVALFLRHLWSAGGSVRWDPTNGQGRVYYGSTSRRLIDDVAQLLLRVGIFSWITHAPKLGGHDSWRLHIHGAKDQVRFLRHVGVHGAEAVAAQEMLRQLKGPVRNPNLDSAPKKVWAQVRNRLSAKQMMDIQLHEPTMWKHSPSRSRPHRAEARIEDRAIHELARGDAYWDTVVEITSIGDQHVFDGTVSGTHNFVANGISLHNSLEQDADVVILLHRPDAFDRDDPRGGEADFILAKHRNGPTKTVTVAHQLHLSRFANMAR

[5] = molecular target: Luciferin 4-monooxygenase (Photinus pyralis, UniProt P08659); experiment: Counter Screen for Luciferase-based Assay Positives. [Related pubchem assays: 620, 618, 411 ]
Chain of Luciferin 4-monooxygenase (P08659 whole entry): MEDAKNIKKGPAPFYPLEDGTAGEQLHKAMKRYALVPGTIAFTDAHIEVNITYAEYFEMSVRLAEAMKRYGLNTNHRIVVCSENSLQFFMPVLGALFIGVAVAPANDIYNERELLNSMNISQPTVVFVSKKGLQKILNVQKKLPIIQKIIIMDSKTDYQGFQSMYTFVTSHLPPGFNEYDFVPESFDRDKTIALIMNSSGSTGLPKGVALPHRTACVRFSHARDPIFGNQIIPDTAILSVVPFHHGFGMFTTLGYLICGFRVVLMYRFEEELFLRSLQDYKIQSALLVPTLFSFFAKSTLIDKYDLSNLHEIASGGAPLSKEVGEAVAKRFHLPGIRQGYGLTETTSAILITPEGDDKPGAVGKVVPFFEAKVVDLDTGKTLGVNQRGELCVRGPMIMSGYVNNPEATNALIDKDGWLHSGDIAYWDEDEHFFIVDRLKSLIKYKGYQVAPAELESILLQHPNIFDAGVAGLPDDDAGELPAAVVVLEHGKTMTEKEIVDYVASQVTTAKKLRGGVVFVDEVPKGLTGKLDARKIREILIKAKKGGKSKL

[6] = molecular target: T4, Heat shock 70 kDa protein 1A (Homo sapiens, UniProt P0DMV8); experiment: Hsp70 inhibitors, biochemical, TR-FRET (AID 786)
T4 sequence (P0DMV8 whole entry): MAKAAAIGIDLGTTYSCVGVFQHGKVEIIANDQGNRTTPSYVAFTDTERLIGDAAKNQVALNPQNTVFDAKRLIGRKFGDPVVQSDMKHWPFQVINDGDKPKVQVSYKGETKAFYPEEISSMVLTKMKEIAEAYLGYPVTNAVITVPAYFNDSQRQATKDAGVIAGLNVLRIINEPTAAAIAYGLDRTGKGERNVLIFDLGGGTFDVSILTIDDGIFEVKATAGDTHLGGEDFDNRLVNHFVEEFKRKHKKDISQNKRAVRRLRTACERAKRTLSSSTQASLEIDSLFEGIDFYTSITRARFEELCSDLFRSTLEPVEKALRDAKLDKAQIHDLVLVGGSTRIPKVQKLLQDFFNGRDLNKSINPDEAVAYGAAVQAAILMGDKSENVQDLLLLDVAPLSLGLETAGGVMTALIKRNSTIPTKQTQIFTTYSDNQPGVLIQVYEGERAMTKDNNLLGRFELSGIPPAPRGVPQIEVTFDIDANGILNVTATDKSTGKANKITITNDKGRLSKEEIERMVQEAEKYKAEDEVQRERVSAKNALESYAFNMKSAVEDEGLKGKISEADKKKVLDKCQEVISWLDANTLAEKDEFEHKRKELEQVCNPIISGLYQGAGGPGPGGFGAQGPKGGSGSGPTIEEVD

Estrogen receptor = molecular target: T5, Estrogen receptor (Homo sapiens, UniProt P03372);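 note: potency for inhibiting coactivator peptide recruitment to the receptor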
T5 sequence (P03372 whole entry): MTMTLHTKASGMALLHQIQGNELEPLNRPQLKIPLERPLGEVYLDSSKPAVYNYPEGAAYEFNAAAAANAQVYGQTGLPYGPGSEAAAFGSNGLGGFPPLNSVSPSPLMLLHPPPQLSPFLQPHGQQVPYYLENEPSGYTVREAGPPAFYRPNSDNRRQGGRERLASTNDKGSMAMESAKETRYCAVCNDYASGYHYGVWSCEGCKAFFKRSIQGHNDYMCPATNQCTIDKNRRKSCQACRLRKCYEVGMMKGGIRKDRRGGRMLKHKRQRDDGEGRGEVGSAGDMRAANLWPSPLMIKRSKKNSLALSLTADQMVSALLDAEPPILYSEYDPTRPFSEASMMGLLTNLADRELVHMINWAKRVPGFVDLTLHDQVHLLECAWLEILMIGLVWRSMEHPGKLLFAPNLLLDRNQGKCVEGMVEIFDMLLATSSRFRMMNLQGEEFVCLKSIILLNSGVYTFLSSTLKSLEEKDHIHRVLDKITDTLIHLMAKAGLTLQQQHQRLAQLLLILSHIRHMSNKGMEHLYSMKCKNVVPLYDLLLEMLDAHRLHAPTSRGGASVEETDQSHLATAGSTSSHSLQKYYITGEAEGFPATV

[7] = molecular target: T4, Heat shock 70 kDa protein 1A; experiment: Hsp70 inhibitors, probe displacement, primary screen, biochemical, fluorescence polarization (AID 583)
Estrogen receptor beta = Estrogen receptor beta (Homo sapiens, UniProt Q92731);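 note: recombinant ER-beta bound to coactivator SRC1 peptide in presence of estradiol agonist; inhibitors block coactivator peptide binding and lower the FRET signal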
Chain of Estrogen receptor beta (Q92731 whole entry): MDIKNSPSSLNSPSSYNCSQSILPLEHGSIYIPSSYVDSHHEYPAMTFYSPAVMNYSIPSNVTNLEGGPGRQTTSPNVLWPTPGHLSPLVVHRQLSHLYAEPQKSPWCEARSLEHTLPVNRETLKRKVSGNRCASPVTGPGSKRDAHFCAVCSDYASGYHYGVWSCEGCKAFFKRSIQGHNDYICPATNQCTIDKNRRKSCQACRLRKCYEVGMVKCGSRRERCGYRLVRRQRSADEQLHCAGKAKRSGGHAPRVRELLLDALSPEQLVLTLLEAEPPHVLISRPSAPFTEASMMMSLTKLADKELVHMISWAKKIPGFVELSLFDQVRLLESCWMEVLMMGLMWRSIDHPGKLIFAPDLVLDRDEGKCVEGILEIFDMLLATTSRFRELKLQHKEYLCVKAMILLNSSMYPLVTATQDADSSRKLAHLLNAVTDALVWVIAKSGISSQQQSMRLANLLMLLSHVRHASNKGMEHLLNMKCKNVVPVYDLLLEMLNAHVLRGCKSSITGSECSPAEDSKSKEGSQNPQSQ

[8] = molecular target: Heat shock protein HSP 90-alpha (Homo sapiens, UniProt P07900); experiment: Luminescence-based dose response biochemical high throughput screening assay for inhibitors of the Heat Shock Protein 90 (HSP90). [Related pubchem assays: 1831 (Summary AID.), 1846 (Confirmation screen.), 1789 (Primary screen.)]
[9] = HIV-1 Env-mediated cell fusion inhibitors, dose response, CCR5-tropic Env (AID 2279); format: functional
Bcl-2-like protein 10 = Bcl-2-like protein 10 (Homo sapiens, UniProt Q9HD36); experiment: Biochemical TR3 FP assay of Bcl-B inhibitor potency, EC50 (AID 1243); format: functional
Chain of Bcl-2-like protein 10 (Q9HD36 whole entry): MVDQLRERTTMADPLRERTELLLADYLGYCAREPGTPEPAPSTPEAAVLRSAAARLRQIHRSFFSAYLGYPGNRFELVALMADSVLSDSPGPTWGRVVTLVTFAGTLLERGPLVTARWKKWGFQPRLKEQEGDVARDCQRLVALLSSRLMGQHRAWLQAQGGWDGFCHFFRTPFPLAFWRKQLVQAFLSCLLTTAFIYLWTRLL

[10] = molecular target: G2/mitotic-specific cyclin-B1 (Homo sapiens, UniProt P14635); experiment: Counterscreen assay for inhibitors of Wee1 degradation: dose response cell-based assay to identify inhibitors of cyclin B degradation. [Related pubchem assays: 1410, 1321 ]; format: functional
Chain of G2/mitotic-specific cyclin-B1 (P14635 whole entry): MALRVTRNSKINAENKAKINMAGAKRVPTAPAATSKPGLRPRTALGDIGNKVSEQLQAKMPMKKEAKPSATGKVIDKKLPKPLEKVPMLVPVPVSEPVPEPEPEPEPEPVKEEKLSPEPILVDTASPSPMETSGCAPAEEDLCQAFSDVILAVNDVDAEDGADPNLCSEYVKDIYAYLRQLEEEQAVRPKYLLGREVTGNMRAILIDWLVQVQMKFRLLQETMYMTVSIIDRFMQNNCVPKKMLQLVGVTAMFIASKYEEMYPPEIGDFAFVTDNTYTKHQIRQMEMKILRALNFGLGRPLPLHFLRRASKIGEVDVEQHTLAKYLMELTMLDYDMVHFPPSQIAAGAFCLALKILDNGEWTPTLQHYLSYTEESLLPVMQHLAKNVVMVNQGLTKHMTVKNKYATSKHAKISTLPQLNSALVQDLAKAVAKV

Wee1-like protein kinase = Wee1-like protein kinase (Homo sapiens, UniProt P30291); experiment: Dose Response Cell-based Assay for Inhibitors of Wee1 Degradation. [Related pubchem assays: 1410, 1321 ]; format: functional
Chain of Wee1-like protein kinase (P30291 whole entry): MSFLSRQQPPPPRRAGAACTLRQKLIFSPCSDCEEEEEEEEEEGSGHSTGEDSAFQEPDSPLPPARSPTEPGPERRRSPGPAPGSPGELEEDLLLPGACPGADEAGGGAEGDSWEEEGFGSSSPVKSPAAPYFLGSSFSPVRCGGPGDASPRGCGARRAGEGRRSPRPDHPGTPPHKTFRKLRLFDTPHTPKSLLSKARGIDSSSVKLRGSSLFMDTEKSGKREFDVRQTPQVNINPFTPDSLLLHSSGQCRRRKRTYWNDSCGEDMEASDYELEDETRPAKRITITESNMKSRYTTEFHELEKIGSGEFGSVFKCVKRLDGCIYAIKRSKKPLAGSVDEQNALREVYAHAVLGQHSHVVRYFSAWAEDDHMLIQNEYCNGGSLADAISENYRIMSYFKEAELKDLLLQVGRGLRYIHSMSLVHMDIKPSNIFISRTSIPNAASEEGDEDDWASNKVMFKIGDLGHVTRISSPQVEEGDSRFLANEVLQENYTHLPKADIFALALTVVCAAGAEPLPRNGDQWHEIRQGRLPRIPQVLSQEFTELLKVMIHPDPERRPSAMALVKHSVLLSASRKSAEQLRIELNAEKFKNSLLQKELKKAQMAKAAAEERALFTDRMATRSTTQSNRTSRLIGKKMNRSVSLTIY

Insulin-degrading enzyme = molecular target: T6, Insulin-degrading enzyme (Homo sapiens, UniProt P14735); experiment: Dose Response: Fluorescence polarization-based cell-based high throughput dose response assay for inhibitors of insulin-degrading enzyme (IDE). [Related pubchem assays: 434962 (Primary screen (IDE inhibitors in singlicate)), 449730 (Counterscreen (Cytotoxicity in triplicate)), 435028 (Confirmation (IDE inhibitors in triplicate)), 434984 (Summary …; format: functional
T6 sequence (P14735 whole entry): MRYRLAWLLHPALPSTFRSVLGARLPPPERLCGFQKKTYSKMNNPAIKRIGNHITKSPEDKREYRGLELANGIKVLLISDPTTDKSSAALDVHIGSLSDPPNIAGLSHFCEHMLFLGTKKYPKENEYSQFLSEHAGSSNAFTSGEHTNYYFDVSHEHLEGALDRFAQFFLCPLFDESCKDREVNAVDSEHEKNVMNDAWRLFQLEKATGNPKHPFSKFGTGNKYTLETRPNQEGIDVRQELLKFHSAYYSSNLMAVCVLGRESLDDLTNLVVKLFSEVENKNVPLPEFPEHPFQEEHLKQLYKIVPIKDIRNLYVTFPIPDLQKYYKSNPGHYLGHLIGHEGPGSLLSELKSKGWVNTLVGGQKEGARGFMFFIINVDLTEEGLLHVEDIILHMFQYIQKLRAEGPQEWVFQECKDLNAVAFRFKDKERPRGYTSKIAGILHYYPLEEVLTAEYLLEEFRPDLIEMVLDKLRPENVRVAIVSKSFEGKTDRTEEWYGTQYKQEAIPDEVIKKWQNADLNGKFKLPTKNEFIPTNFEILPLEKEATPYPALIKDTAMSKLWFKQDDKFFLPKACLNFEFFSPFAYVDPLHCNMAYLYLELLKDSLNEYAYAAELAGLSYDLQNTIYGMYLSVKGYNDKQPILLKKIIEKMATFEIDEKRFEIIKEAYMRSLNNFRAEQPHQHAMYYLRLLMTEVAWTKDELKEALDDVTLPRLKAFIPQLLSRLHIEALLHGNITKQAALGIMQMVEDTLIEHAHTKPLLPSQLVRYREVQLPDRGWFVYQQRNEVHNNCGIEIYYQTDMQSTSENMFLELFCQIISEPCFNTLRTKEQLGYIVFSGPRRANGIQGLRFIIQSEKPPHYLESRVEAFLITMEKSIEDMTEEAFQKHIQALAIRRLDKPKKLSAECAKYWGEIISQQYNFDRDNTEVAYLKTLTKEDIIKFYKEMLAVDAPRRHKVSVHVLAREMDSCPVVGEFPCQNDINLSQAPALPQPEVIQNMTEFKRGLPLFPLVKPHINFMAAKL

[11] = Counterscreen for IDE inhibitors: Luminescence-based cell-based high throughput dose response assay to identify compounds that are cytotoxic to HEK cells. [Related pubchem assays: 434962 (Primary screen (IDE inhibitors in singlicate)), 449730 (Counterscreen (Cytotoxicity in triplicate)), 435028 (Confirmation (IDE inhibitors in triplicate)) …; format: functional; settings: HEK293
[12] = molecular target: Mothers against decapentaplegic homolog 3 (Homo sapiens, UniProt P84022); experiment: Smad3 binding inhibitors, lysate ELISA, dose response, cell lysate, secondary confirmation, chemiluminescent ELISA, HEK293 lysate (AID 1058); format: functional
Chain of Mothers against decapentaplegic homolog 3 (P84022 whole entry): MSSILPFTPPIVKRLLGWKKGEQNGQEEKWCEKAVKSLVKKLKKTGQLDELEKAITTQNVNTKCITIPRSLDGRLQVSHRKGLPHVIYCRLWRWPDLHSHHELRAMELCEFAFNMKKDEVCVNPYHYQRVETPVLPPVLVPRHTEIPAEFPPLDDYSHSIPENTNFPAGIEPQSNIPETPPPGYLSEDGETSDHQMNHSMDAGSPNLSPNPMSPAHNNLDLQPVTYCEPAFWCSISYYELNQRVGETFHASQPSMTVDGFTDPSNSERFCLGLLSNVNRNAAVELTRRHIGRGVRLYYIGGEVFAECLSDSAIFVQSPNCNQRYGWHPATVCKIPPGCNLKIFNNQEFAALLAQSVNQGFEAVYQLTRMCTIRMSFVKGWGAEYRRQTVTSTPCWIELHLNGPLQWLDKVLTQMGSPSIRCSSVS

For `CCC(C)C(NC(=O)c1ccccc1NC(=O)c1ccco1)C(=O)NC1CCCCC1` (stereo not given), the EC50 [1] was > 100 µM (not active).

In the case of `CC1(O)C(=O)C=C2C=C3CCCN3C=C2C1=O` (stereo not given), the AC50 (Cytochrome P450 2D6) is reported as 7.94 µM (inconclusive).

In the case of `CCCCOc1ccc(C(=O)C(CN2CCOCC2)c2ccccc2)cc1` (stereo not given), the AC50 [2] is reported as 5.12 µM (active), the EC50 (HT-1080) is reported as 30 µM (active) and the EC50 (Protein RecA) is reported as 26.7 µM (inconclusive). The AC50 [3] was 4.4 µM (active), the AC50 [4] was 12.6 µM (active) and the EC50 [5] was 3.7 µM (active).

In the case of `NC(=O)COc1ccc(C2c3c(oc4ccccc4c3=O)C(=O)N2CC2CCCO2)cc1` (stereo not given), the IC50 [6] is reported as 16 µM (active), the IC50 (Estrogen receptor) is reported as > 50 µM (not active) and the IC50 [7] is reported as 55.1 µM (active). For the same compound, the IC50 (Estrogen receptor beta) was > 50 µM (not active).

In the case of `COc1cc(/C=N/Nc2ccc(Cl)c(C(=O)O)c2)ccc1OC(=O)c1ccc(F)cc1`, the IC50 [8] is reported as 0.874 µM (active) and the IC50 [9] is reported as 4.76 µM (active).

For `O=S(=O)(O)c1cccc2cccc(Nc3ccccc3)c12`, the EC50 (Bcl-2-like protein 10) was 2.95 µM (active).

For `O=C(/C=C/c1ccccc1)Nc1ccc(Cl)cn1`, the EC50 [10] was > 49.7 µM (not active) and the EC50 (Wee1-like protein kinase) was > 49.7 µM (not active).

For `O=C(Nc1cccc(C(F)(F)F)c1)c1csc(-c2ccncc2)n1`, the IC50 (Insulin-degrading enzyme) was 5.34 µM (active) and the IC50 [11] was 21.2 µM (not active).

For `Oc1cc2c(cc1C(c1ccc3c(c1)OCO3)N1CCN(C(c3ccc4c(c3)OCO4)c3cc4c(cc3O)OCO4)CC1)OCO2` (stereo not given), the IC50 [12] was 14.1 µM (not active).
